# Reference: ChEMBL document CHEMBL6087388, “Hydrogen peroxide responsive theranostics for cancer-selective activation of DNA alkylators and real-time fluorescence monitoring in living cells” (Eur J Med Chem, 2024)
# Legend:
# [1] = test system: MCF-10A; test: Induction of DNA damage in human MCF-10A cells at 10 uM incubated for 48 hrs by Alkaline comet based EVOS digital inverted microscopic analysis; assay type: toxicity, cell-based
# [2] = Drug localization in mitochondria of human MDA-MB-468 cells assessed as fluorescence at 5 uM pretreated with paraquat for […] by MitoTracker Red CMXRos based confocal microscopic analysis; assay type: ADME; conditions: time 1.5 hrs
# [3] = Drug localization in mitochondria of human MDA-MB-468 cells assessed as accumulation of compound in mitochondria at 5 uM incubated for 0.5 hrs and measured after […] by MitoTracker Red CMXRos based confocal microscopic analysis; assay type: ADME; conditions: mda-mb-468, 2 h
# [4] = Drug localization in nucleus of human MDA-MB-468 cells assessed as accumulation of compound in nucleus at 5 uM pretreated with paraquat for 10 hrs followed by compound addition and measured after […] by SYTO 9 or Hoechst 33342 staining based confocal microscopic analysis; assay type: ADME, subcellular; conditions: mda-mb-468, 10 h
# [5] = Drug localization in mitochondria of human MDA-MB-468 cells assessed as blue fluorescence at 5 uM incubated for 2 hrs by MitoTracker Red CMXRos based confocal microscopic analysis; assay type: ADME; conditions: mda-mb-468, 2 h
# [6] = Drug localization in nucleus of human MDA-MB-468 cells assessed as accumulation of compound in nucleus at 5 uM incubated for 0.5 hrs and measured after […] by SYTO 9 or Hoechst 33342 staining based confocal microscopic analysis; assay type: ADME, subcellular; conditions: mda-mb-468, 2 h
# [7] = test system: MCF-10A; test: Induction of DNA damage in human MCF-10A cells at 5 uM incubated for 48 hrs by Alkaline comet based EVOS digital inverted microscopic analysis; assay type: toxicity, cell-based
# [8] = Photophysical property of the compound assessed as relative quantum yield at 2 uM in PBS and DMSO relative to quinine sulfate; assay type: physicochemical; conditions: buffer
SMILES,Activity [1],Drug uptake [2],Drug uptake [3],Drug uptake [4],Drug uptake [5],Drug uptake [6],Activity [7],Activity [8]
CC1(C)OB(c2ccc3cc(-n4cc(CCCCCCCCCOCc5cc(N(CCCl)CCCl)ccc5B5OC(C)(C)C(C)(C)O5)nn4)c(=O)oc3c2)OC1(C)C,Non-toxic,Active,Active,Not_active,Not_active,Not_active,,
CC1(C)OB(c2ccc3c(c2)Oc2cc(B4OC(C)(C)C(C)(C)O4)ccc2C32OC(=O)c3cc(-n4cc(CCCCCCCCCOCc5cc(N(CCCl)CCCl)ccc5B5OC(C)(C)C(C)(C)O5)nn4)ccc32)OC1(C)C,,Active,Active,Not_active,Not_active,Not_active,,
CC1(C)OB(c2ccc(N(CCCl)CCCl)cc2COCc2cn(-c3cc4ccc(O)cc4oc3=O)nn2)OC1(C)C,,,,,Active,Not_active,Non-toxic,0.17
